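Compound exposure: 48 hours, 5 concentrations, 96-well plates. GI50 marks 50% less growth. TGI: total growth inhibition.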
Legend:
Assay in all cases: inhibition of tumour cell growth, NCI panel, 48 h
[1] = system: MCF7 breast
[2] = system: SF-295 CNS
[3] = system: HOP-62 NSCLC
[4] = system: COLO 205 colon
[5] = system: HCT-116 colon
[6] = system: MDA-MB-435
[7] = system: SK-OV-3 ovarian
[8] = system: U251 CNS
[9] = system: OVCAR-5 ovarian
[10] = system: A498 renal

Row | SMILES | TGI [1] | TGI [2] | TGI [3] | TGI [4] | TGI [5] | TGI [6] | TGI [7] | TGI [8] | TGI [9] | TGI [10] | GI50 [1] | GI50 [2] | GI50 [3] | GI50 [5] | GI50 [6] | GI50 [7] | GI50 [8] | GI50 [9] | GI50 [10] | GI50 [4]
1 | COc1cc2c(cc1OC)-c1cc3ccccc3c[n+]1CC2 | > 100 µM | > 100 µM | > 100 µM | > 100 µM | > 100 µM | > 100 µM | > 100 µM | > 100 µM | > 100 µM |  |  |  |  |  |  |  |  |  |  | 
2 | CCOc1ccc2nc(-c3ccc(O)cc3)sc2c1 | > 100 µM | 61.6 µM |  | > 100 µM | > 100 µM | > 100 µM | 94.3 µM | > 100 µM | > 100 µM | > 100 µM |  |  |  |  |  |  |  |  |  | 
3 | O=C(Nc1cccc(-n2ccc3c(NC(=O)c4ccccc4)nccc32)c1)c1ccc(N2CCOCC2)c(C(F)(F)F)c1 | > 73.5 µM | 0.49 µM | > 94.7 µM |  | > 100 µM | 0.046 µM | 2.66 µM | > 100 µM | > 100 µM | 4.72 µM | 0.0397 µM | 0.0306 µM | 0.0536 µM | 0.0371 µM | 0.0191 µM | 0.0326 µM | 0.0474 µM | 0.188 µM | 0.0357 µM | 
4 | CC1(C)CC23C4COC(=O)C2CCC1C3CC4=O (stereo not drawn) | 47.9 µM | 53.5 µM | 59.3 µM | 33.6 µM | 21.9 µM |  | 104 µM | 50.7 µM | 72.4 µM | 13.8 µM |  |  |  |  |  |  |  |  |  | 
5 | COC1=C2CC(C)CC(OC)C(O)C(C)/C=C(\C)C(OC(N)=O)C(OC)/C=C\C=C(/C)C(=O)NC(=C(C=NC(C)(C)C)C1=O)C2=O (stereo not drawn) | 35.7 µM | 31.7 µM | 41 µM | 10.6 µM | 16.2 µM |  | 67.3 µM | 21.9 µM | 74.1 µM | 23.6 µM |  |  |  |  |  |  |  |  |  | 
6 | O=C1OC[C@@H]2[C@@H](O)CCCCCN12 | > 100 µM | > 100 µM | > 100 µM | > 100 µM | > 100 µM | > 100 µM | > 100 µM | > 100 µM | > 100 µM | > 100 µM |  |  |  |  |  |  |  |  |  | 
7 | Fc1ccc2[nH]cc(-c3nc(-c4c[nH]c5ncccc45)cs3)c2c1 | > 100 µM |  |  | > 100 µM |  | > 100 µM |  |  | > 100 µM | > 100 µM | 3.04 µM |  |  |  | 12.5 µM |  |  | > 100 µM | 2.07 µM | 1.7 µM
8 | N/C(=N\N=C/c1ccccc1O)NO | 26.5 µM | > 34.4 µM | > 60.8 µM | > 27.4 µM | 47.8 µM |  | > 87.1 µM | > 100 µM | > 100 µM | 44.4 µM |  |  |  |  |  |  |  |  |  | 
9 | Nc1ncnc2c1ncn2C1OC(COP(=O)(O)O)C(O)C1O (stereo not drawn) | > 50 µM | > 50 µM | > 50 µM | > 50 µM | > 50 µM |  | > 50 µM | > 50 µM | > 50 µM | > 50 µM |  |  |  |  |  |  |  |  |  | 
10 | CCOC(=O)NC(Nc1ncccn1)(C(F)(F)F)C(F)(F)F | > 100 µM |  | > 100 µM |  | > 100 µM | > 100 µM | > 100 µM | > 100 µM | > 100 µM | > 100 µM |  |  |  |  |  |  |  |  |  | 
11 | CCS(=O)(=O)N1CCC(C(C)n2c(C)c(C(=O)NCc3c(OC)cc(C)[nH]c3=O)c3ccccc32)CC1 (stereo not drawn) | > 100 µM | > 100 µM | > 100 µM | > 100 µM |  | > 100 µM | > 100 µM | > 100 µM | > 100 µM | > 100 µM | 25.8 µM | > 100 µM | > 100 µM |  | > 100 µM | > 100 µM | > 100 µM | > 100 µM | > 100 µM | > 100 µM
